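These data come from cells grown in 96-well plates and exposed to compound for 48 hours at five concentrations. GI50 = concentration required for 50% inhibition of growth. The concentration for full growth arrest is given as TGI.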 Where a SMILES comes first, the peptide text is derived from it. Bridges are numbered along the chain shown (N, C = ends). [ ]: non-standard residue; d: D form. aThr = C[C@H](O)[C@H](N)C(=O)O
Experiments:
Assay in all cases: growth of human tumour cells (NCI), 48 h
[1] = system: NCI-H23 lung
[2] = system: SF-268 CNS
[3] = system: SK-OV-3 ovarian
[4] = system: SK-MEL-5 melanoma
[5] = system: NCI/ADR-RES ovarian
[6] = system: HS 578T breast
[7] = system: HT29 colon
[8] = system: SK-MEL-28 melanoma
[9] = system: DU-145 prostate
[10] = system: U251 CNS
[11] = system: NCI-H460 lung
[12] = system: KM12 colon
[13] = system: MOLT-4 leukemia
[14] = system: T-47D breast
[15] = system: OVCAR-4 ovarian
[16] = system: MDA-MB-435
[17] = system: COLO 205 colon
[18] = system: MALME-3M melanoma
[19] = system: CCRF-CEM leukemia
[20] = system: ACHN renal
[21] = system: PC-3 prostate
[22] = system: OVCAR-8 ovarian
[23] = system: SN12C renal
[24] = system: SK-MEL-2 melanoma
[25] = system: SNB-19 CNS
[26] = system: MCF7 breast
[27] = system: SF-539 CNS
[28] = system: 786-0 renal
[29] = system: SW-620 colon
[30] = system: TK-10 renal
[31] = system: SF-295 CNS
[32] = system: RXF 393 renal
[33] = system: HOP-92 NSCLC
[34] = system: LOX IMVI melanoma
[35] = system: CAKI-1 renal
[36] = system: K-562 leukemia
[37] = system: HCT-15 colon
[38] = system: RPMI-8226 leukemia
[39] = system: OVCAR-3 ovarian
[40] = system: OVCAR-5 ovarian
[41] = system: A549 NSCLC
[42] = system: NCI-H226 lung
[43] = system: HCT-116 colon
[44] = system: UACC-257 melanoma
[45] = system: HCC-2998 colon
[46] = system: HOP-62 NSCLC
[47] = system: MDA-MB-231 breast
[48] = system: UACC-62 melanoma
[49] = system: A498 renal
[50] = system: BT-549 breast
[51] = system: UO-31 renal
[52] = system: IGROV1 ovarian
[53] = system: EKVX NSCLC
[54] = system: NCI-H522 lung
[55] = system: SR leukemia
[56] = system: SNB-75 CNS
[57] = system: HL-60(TB) leukemia

SMILES: CC(C)C[C@@H]1NC(=O)[C@@H]2CCCN2C(=O)[C@@H]2CCCN2C(=O)[C@H](CC(C)C)NC(=O)[C@H](CO)NC(=O)[C@H](CCCCN)NC(=O)[C@H]([C@H](C)O)NC(=O)[C@@H]2CSSC[C@@H](NC1=O)C(=O)N[C@@H](Cc1ccccc1)C(=O)N1CCC[C@H]1C(=O)N[C@@H](CC(=O)O)C(=O)NCC(=O)N[C@@H](CCCN=C(N)N)C(=O)N2 (cyclo(C[aThr]KSLPPL[dC]FPDGR); disulfide 1-9)
- GI50 [1]: > 50 µM
- TGI [1]: > 50 µM
- GI50 [2]: > 50 µM
- TGI [2]: > 50 µM
- GI50 [3]: > 50 µM
- TGI [3]: > 50 µM
- GI50 [4]: > 50 µM
- TGI [4]: > 50 µM
- GI50 [5]: > 50 µM
- TGI [5]: > 50 µM
- GI50 [6]: > 50 µM
- TGI [6]: > 50 µM
- GI50 [7]: > 50 µM
- TGI [7]: > 50 µM
- GI50 [8]: > 50 µM
- TGI [8]: > 50 µM
- GI50 [9]: > 50 µM
- TGI [9]: > 50 µM
- GI50 [10]: > 50 µM
- TGI [10]: > 50 µM
- GI50 [11]: > 50 µM
- TGI [11]: > 50 µM
- GI50 [12]: > 50 µM
- TGI [12]: > 50 µM
- GI50 [13]: > 50 µM
- TGI [13]: > 50 µM
- GI50 [14]: > 50 µM
- TGI [14]: > 50 µM
- GI50 [15]: > 50 µM
- TGI [15]: > 50 µM
- GI50 [16]: > 50 µM
- TGI [16]: > 50 µM
- GI50 [17]: > 50 µM
- TGI [17]: > 50 µM
- GI50 [18]: > 50 µM
- TGI [18]: > 50 µM
- GI50 [19]: > 50 µM
- TGI [19]: > 50 µM
- GI50 [20]: > 50 µM
- TGI [20]: > 50 µM
- GI50 [21]: > 50 µM
- TGI [21]: > 50 µM
- GI50 [22]: > 50 µM
- TGI [22]: > 50 µM
- GI50 [23]: > 50 µM
- TGI [23]: > 50 µM
- GI50 [24]: > 50 µM
- TGI [24]: > 50 µM
- GI50 [25]: > 50 µM
- TGI [25]: > 50 µM
- GI50 [26]: > 50 µM
- TGI [26]: > 50 µM
- GI50 [27]: > 50 µM
- TGI [27]: > 50 µM
- GI50 [28]: > 50 µM
- TGI [28]: > 50 µM
- GI50 [29]: > 50 µM
- TGI [29]: > 50 µM
- GI50 [30]: > 50 µM
- TGI [30]: > 50 µM
- GI50 [31]: > 50 µM
- TGI [31]: > 50 µM
- GI50 [32]: > 50 µM
- TGI [32]: > 50 µM
- GI50 [33]: > 50 µM
- TGI [33]: > 50 µM
- GI50 [34]: > 50 µM
- TGI [34]: > 50 µM
- GI50 [35]: > 50 µM
- TGI [35]: > 50 µM
- GI50 [36]: > 50 µM
- TGI [36]: > 50 µM
- GI50 [37]: > 50 µM
- TGI [37]: > 50 µM
- GI50 [38]: > 50 µM
- TGI [38]: > 50 µM
- GI50 [39]: > 50 µM
- TGI [39]: > 50 µM
- GI50 [40]: > 50 µM
- TGI [40]: > 50 µM
- GI50 [41]: > 50 µM
- TGI [41]: > 50 µM
- GI50 [42]: > 50 µM
- TGI [42]: > 50 µM
- GI50 [43]: > 50 µM
- TGI [43]: > 50 µM
- GI50 [44]: > 50 µM
- TGI [44]: > 50 µM
- GI50 [45]: > 50 µM
- TGI [45]: > 50 µM
- GI50 [46]: > 50 µM
- TGI [46]: > 50 µM
- GI50 [47]: > 50 µM
- TGI [47]: > 50 µM
- GI50 [48]: > 50 µM
- TGI [48]: > 50 µM
- GI50 [49]: 13.2 µM
- TGI [49]: 33.5 µM
- GI50 [50]: > 50 µM
- TGI [50]: > 50 µM
- GI50 [51]: > 50 µM
- TGI [51]: > 50 µM
- GI50 [52]: > 46.4 µM
- TGI [52]: > 50 µM
- GI50 [53]: > 50 µM
- TGI [53]: > 50 µM
- GI50 [54]: > 50 µM
- TGI [54]: > 50 µM

SMILES: COc1cc(C(=O)/C=C/c2cccc(Nc3ccnc4cc(Cl)ccc34)c2)cc(OC)c1OC
- GI50 [1]: 1.67 µM
- TGI [1]: 3.68 µM
- GI50 [3]: 1.94 µM
- TGI [3]: 4.51 µM
- GI50 [4]: 1.38 µM
- TGI [4]: 2.67 µM
- GI50 [5]: 0.409 µM
- TGI [5]: 2.94 µM
- GI50 [6]: 2.49 µM
- TGI [6]: 14.2 µM
- GI50 [7]: 0.323 µM
- TGI [7]: 1.3 µM
- GI50 [8]: 1.51 µM
- TGI [8]: 3.01 µM
- GI50 [10]: 0.911 µM
- TGI [10]: 2.24 µM
- GI50 [11]: 1.91 µM
- TGI [11]: 4.49 µM
- GI50 [13]: 1.79 µM
- TGI [13]: 6.46 µM
- GI50 [14]: 1.22 µM
- TGI [14]: 3.17 µM
- GI50 [15]: 1.26 µM
- TGI [15]: 2.57 µM
- GI50 [17]: 1.34 µM
- TGI [17]: 3.69 µM
- GI50 [18]: 1.46 µM
- TGI [18]: 3.38 µM
- GI50 [55]: 0.324 µM
- TGI [55]: 1.42 µM
- GI50 [20]: 1.24 µM
- TGI [20]: 2.49 µM
- GI50 [22]: 0.524 µM
- TGI [22]: 2.12 µM
- GI50 [25]: 1.18 µM
- TGI [25]: 2.45 µM
- GI50 [26]: 0.609 µM
- TGI [26]: 2.06 µM
- GI50 [27]: 1.36 µM
- TGI [27]: 2.68 µM
- GI50 [28]: 0.564 µM
- TGI [28]: 1.95 µM
- GI50 [29]: 0.445 µM
- TGI [29]: 2.44 µM
- GI50 [30]: 1.45 µM
- TGI [30]: 2.97 µM
- GI50 [56]: 1.31 µM
- TGI [56]: 3.64 µM
- GI50 [31]: 1.42 µM
- TGI [31]: 3.03 µM
- GI50 [32]: 1.08 µM
- TGI [32]: 2.48 µM
- GI50 [33]: 1.47 µM
- TGI [33]: 5.84 µM
- GI50 [34]: 0.373 µM
- TGI [34]: 1.46 µM
- GI50 [36]: 0.403 µM
- TGI [36]: 3.23 µM
- GI50 [38]: 0.312 µM
- TGI [38]: 1.42 µM
- GI50 [39]: 0.389 µM
- TGI [39]: 1.39 µM
- GI50 [40]: 1.7 µM
- TGI [40]: 3.29 µM
- GI50 [41]: 1.48 µM
- TGI [41]: 3.91 µM
- GI50 [42]: 1.27 µM
- TGI [42]: 2.95 µM
- GI50 [43]: 0.347 µM
- TGI [43]: 1.29 µM
- GI50 [44]: 1.43 µM
- TGI [44]: 3.06 µM
- GI50 [45]: 1.72 µM
- TGI [45]: 3.21 µM
- GI50 [46]: 0.676 µM
- TGI [46]: 2.27 µM
- GI50 [48]: 1.03 µM
- TGI [48]: 2.36 µM
- GI50 [49]: 1.54 µM
- TGI [49]: 4.21 µM
- GI50 [57]: 1.82 µM
- TGI [57]: 4.52 µM
- GI50 [50]: 1.23 µM
- TGI [50]: 2.84 µM
- GI50 [51]: 0.566 µM
- TGI [51]: 1.95 µM
- GI50 [52]: 1.32 µM
- TGI [52]: 3.8 µM
- GI50 [54]: 0.594 µM
- TGI [54]: 2.25 µM

— PubChem BioAssay (NCI)
